This passage reports IC50 results from US8283358B2, “N-sulfonamido polycyclic pyrazolyl compounds” (Elan Pharmaceuticals, Inc., priority 2008, dated 2012).

One experiment has as its target T1, gamma-secretase (partially purified extract of IMR-32 cell membranes; substrate MBP-C125 Swe fusion protein, cleavage at the Aβ40 site) (Homo sapiens, UniProt P49768).
T1 construct: a partially purified extract of IMR-32 cell membranes as the gamma-secretase enzyme preparation; endogenous in cells; host or cells: IMR-32 cell membranes, partially purified extract
Kind of experiment: Gamma-secretase APP enzyme assay (Example A). The format is biochemical. The conditions noted are these: class symbols; assay described in Example A; read-out: γAPP IC50. The source says:
The gamma-secretase APP enzyme assay was designed to measure the specific proteolytic cleavage of an APP substrate (MBP-C125 Swe fusion protein) at the Aβ40 site. […] This assay involved two steps beginning with the enzymatic reaction generating a cleavage product that was captured with an immobilized antibody specific for the neo-epitope Aβ40 site. The captured cleavage product was then detected in a sandwich ELISA assay with a biotinylated reporter antibody that is specific to Aβ(17-28). Streptavidin-linked alkaline phosphatase was then added that would generate a fluorescent signal proportional to the amount of cleavage product.
This warmed solution of BigCHAPS (N,N-Bis(3-D-gluconamidopropyl)cholamide) detergent was used to dissolve Brain Extract Type-V (lipid containing a minimum of 40% phosphatidylethanolamine) from Sigma (St. Louis, Mo.) to a concentration of 8 mg/ml. This solution containing BigCHAPS and lipid at 8 mg/ml is then diluted to 0.53 mg/ml lipid with a pre-warmed solution of Hepes and sodium chloride.
Gamma-secretase was then added to a 96-well micro-titre plate and then incubated with various concentrations of inhibitor for 30 minutes at 37° C. MBPC125 substrate was then added to initiate the reaction that would run for two hours at 37° C. The reaction was quenched with the addition of SDS to a final concentration of 0.1% and then 100 μl of the reaction mixture was transferred to a capture ELISA plate and incubated overnight at 4° C. Detection of the cleavage product was performed using a standard sandwich ELISA assay and quantified using a six point standard curve.
For `Cn1cc(C2CC3Cc4[nH]ncc4C(C2)N3S(=O)(=O)c2ccc(Cl)cc2)nn1` (single isomer, unassigned) [compound 137], the concentration for half-maximal inhibition (IC50) is greater than 1000 nM.

Regarding `Cn1cc(C2CC3Cc4[nH]ncc4C(C2)N3S(=O)(=O)c2ccc(Cl)cc2)nn1` (single isomer, unassigned) [compound 138], the IC50 fell in the range of 500 to 999 nM.

On to `N#Cc1ccc2c(c1)C1Cc3n[nH]cc3C2N1S(=O)(=O)c1ccc(C(F)(F)F)nc1` (single isomer, unassigned) [compound 172], for which the IC50 is greater than 1000 nM.

For `N#Cc1ccc2c(c1)C1Cc3n[nH]cc3C2N1S(=O)(=O)c1ccc(C(F)(F)F)nc1` (single isomer, unassigned) [compound 174], the 50% inhibitory concentration (IC50) is less than 100 nM.

Regarding `O=S(=O)(c1ccc(C(F)(F)F)nc1)N1C2Cc3[nH]ncc3C1c1cc(F)ccc12` (single isomer, unassigned) [compound 179], the half-maximal inhibitory concentration (IC50) lay in the range of 500 to 999 nM.

In the case of `O=S(=O)(c1ccc(C(F)(F)F)nc1)N1C2Cc3[nH]ncc3C1c1cc(F)ccc12` (single isomer, unassigned) [compound 180], the IC50 is less than 100 nM.

In the case of `O=S(=O)(c1ccc(C(F)(F)F)nc1)N1C2Cc3n[nH]cc3C1c1cccc(F)c12` (single isomer, unassigned) [compound 184], the IC50 fell in the range of 500 to 999 nM.

Consider `O=S(=O)(c1ccc(C(F)(F)F)nc1)N1C2Cc3n[nH]cc3C1c1cccc(F)c12` (single isomer, unassigned) [compound 185], for which the concentration for half-maximal inhibition (IC50) was less than 100 nM.

Take `O=C1c2[nH]ncc2C2c3cccc(F)c3C1N2S(=O)(=O)c1ccc(C(F)(F)F)nc1` (single isomer, unassigned) [compound 192]: the concentration for half-maximal inhibition (IC50) was less than 100 nM.

Consider `O=C1c2[nH]ncc2C2c3cccc(F)c3C1N2S(=O)(=O)c1ccc(C(F)(F)F)nc1` (single isomer, unassigned) [compound 193], for which the concentration for half-maximal inhibition (IC50) was in the range of 500 to 999 nM.

For the molecule `O=S(=O)(c1ccc(C(F)(F)F)nc1)N1C2Cc3[nH]ncc3C1c1ccc(Cl)cc12` (single isomer, unassigned) [compound 223], the IC50 lay in the range of 500 to 999 nM.

As to `O=S(=O)(c1ccc(C(F)(F)F)nc1)N1C2Cc3[nH]ncc3C1c1ccc(Cl)cc12` (single isomer, unassigned) [compound 224], the IC50 was less than 100 nM.

Regarding `O=S(=O)(c1ccc(Cl)cc1)N1C2Cc3[nH]ncc3C1c1c(F)cccc12` (single isomer, unassigned) [compound 230], the half-inhibitory concentration (IC50) was greater than 1000 nM.

On to `O=S(=O)(c1ccc(Cl)cc1)N1C2Cc3[nH]ncc3C1c1c(F)cccc12` (single isomer, unassigned) [compound 231], for which the IC50 is less than 100 nM.

With `O=S(=O)(c1ccc(C(F)(F)F)nc1)N1C2Cc3[nH]ncc3C1c1c(Cl)cccc12` (single isomer, unassigned) [compound 232], the 50% inhibitory concentration (IC50) was in the range of 500 to 999 nM.

Take `O=S(=O)(c1ccc(C(F)(F)F)nc1)N1C2Cc3[nH]ncc3C1c1c(Cl)cccc12` (single isomer, unassigned) [compound 233]: the 50% inhibitory concentration (IC50) was less than 100 nM.

Take `O=S(=O)(c1ccc(C(F)(F)F)nc1)N1C2Cc3[nH]ncc3C1c1cc(-c3ccc(F)cc3)ccc12` (single isomer, unassigned) [compound 244]: the half-maximal inhibitory concentration (IC50) was greater than 1000 nM.

`O=S(=O)(c1ccc(C(F)(F)F)nc1)N1C2Cc3[nH]ncc3C1c1cc(-c3ccc(F)cc3)ccc12` (single isomer, unassigned) [compound 245]: the 50% inhibitory concentration (IC50) was in the range of 100 to 499 nM.

Turning to `O=S(=O)(c1ccc(C(F)(F)F)nc1)N1C2Cc3[nH]ncc3C1c1cc(C3CC3)ccc12` (single isomer, unassigned) [compound 246], the IC50 was greater than 1000 nM.

As to `O=S(=O)(c1ccc(C(F)(F)F)nc1)N1C2Cc3[nH]ncc3C1c1cc(C3CC3)ccc12` (single isomer, unassigned) [compound 247], the IC50 was less than 100 nM.

As to `O=S(=O)(c1ccc(C(F)(F)F)nc1)N1C2Cc3n[nH]cc3C1c1nc(Br)ccc12` (single isomer, unassigned) [compound 248], the IC50 was less than 100 nM.

Turning to `O=S(=O)(c1ccc(C(F)(F)F)nc1)N1C2Cc3n[nH]cc3C1c1nc(Br)ccc12` (single isomer, unassigned) [compound 249], the IC50 was greater than 1000 nM.

For the molecule `O=S(=O)(c1ccc(C(F)(F)F)cc1)N1C2c3cn[nH]c3C(F)C1c1cccc(F)c12` (single isomer, unassigned) [compound 262], the half-maximal inhibitory concentration (IC50) was greater than 1000 nM.

With `O=S(=O)(c1ccc(C(F)(F)F)cc1)N1C2c3cn[nH]c3C(F)C1c1cccc(F)c12` (single isomer, unassigned) [compound 263], the IC50 was less than 100 nM.

Regarding `O=S(=O)(c1ccc(C(F)(F)F)cc1)N1C2C=C(C3CC3)C1c1c[nH]nc1C2` (centres unmarked) [compound 44], the concentration for half-maximal inhibition (IC50) is less than 100 nM.

In the case of `O=S(=O)(c1ccc(C(F)(F)F)cc1)N1C2Cc3n[nH]cc3C1C(C1CC1)C2` (centres unmarked) [compound 45], the concentration for half-maximal inhibition (IC50) was less than 100 nM.

Regarding `O=S(=O)(c1ccc(C(F)(F)F)cc1)N1C2Cc3[nH]ncc3C1C=C2c1ccc(F)cc1` (centres unmarked) [compound 60], the IC50 lay in the range of 100 to 499 nM.

As to `O=S(=O)(c1ccc(C(F)(F)F)cc1)N1C2Cc3[nH]ncc3C1C(c1ccc(F)cc1)C2` (centres unmarked) [compound 61], the IC50 is less than 100 nM.

As to `O=C1c2n[nH]cc2C2c3cc(F)c(F)cc3C1N2S(=O)(=O)c1ccc(C(F)(F)F)cc1` (centres unmarked) [compound 69], the 50% inhibitory concentration (IC50) was less than 100 nM.

With `O=C1c2[nH]ncc2C2c3ccccc3C1N2S(=O)(=O)c1ccc(C(F)(F)F)cc1` (centres unmarked) [compound 71], the concentration for half-maximal inhibition (IC50) was less than 100 nM.

As to `O=S(=O)(c1ccc(C(F)(F)F)cc1)N1C2Cc3[nH]ncc3C1c1ccccc12` (centres unmarked) [compound 72], the IC50 is greater than 1000 nM.

As for `O=S(=O)(c1ccc(C(F)(F)F)cc1)N1C2c3cc(F)c(F)cc3C1C(F)(F)c1n[nH]cc12` (centres unmarked) [compound 77], the IC50 was less than 100 nM.

As to `O=S(=O)(c1ccc(C(F)(F)F)nc1)N1C2Cc3ccccc3C1c1c[nH]nc1C2` (centres unmarked) [compound 88], the IC50 was less than 100 nM.

Consider `O=S(=O)(c1ccc(C(F)(F)F)cc1)N1C2Cc3[nH]ncc3C1c1cc(F)c(F)cc12` (centres unmarked) [compound 95], for which the 50% inhibitory concentration (IC50) is less than 100 nM.

In the case of `O=S(=O)(c1ccc(C(F)(F)F)nc1)N1C2Cc3[nH]ncc3C1c1ccccc12` (centres unmarked) [compound 98], the 50% inhibitory concentration (IC50) is less than 100 nM.

With `O=S(=O)(c1ccc(C(F)(F)F)cc1)N1C2Cc3[nH]ncc3C1c1cccnc12` (centres unmarked) [compound 100], the 50% inhibitory concentration (IC50) was less than 100 nM.

For `O=C1c2n[nH]cc2C2c3c(F)cccc3C1N2S(=O)(=O)c1ccc(C(F)(F)F)cc1` (centres unmarked) [compound 103], the half-inhibitory concentration (IC50) was less than 100 nM.

Regarding `O=C1c2n[nH]cc2C2c3cccc(F)c3C1N2S(=O)(=O)c1ccc(C(F)(F)F)cc1` (centres unmarked) [compound 104], the 50% inhibitory concentration (IC50) was less than 100 nM.

Take `O=S(=O)(c1ccc(C(F)(F)F)cc1)N1C2Cc3n[nH]cc3C1CC(c1ccc(Br)cc1)C2` (centres unmarked) [compound 106]: the IC50 is less than 100 nM.

For the molecule `O=S(=O)(c1ccc(Cl)cc1)N1C2Cc3[nH]ncc3C1CC(c1ccncn1)C2` (centres unmarked) [compound 107], the 50% inhibitory concentration (IC50) is less than 100 nM.

As for `O=S(=O)(c1ccc(C(F)(F)F)nc1)N1C2Cc3[nH]ncc3C1CC(c1ccc3c(c1)OCO3)C2` (centres unmarked) [compound 108], the IC50 was less than 100 nM.

Consider `O=S(=O)(c1ccc(C(F)(F)F)cc1)N1C2Cc3[nH]ncc3C1CC(c1ccc(-c3cscn3)cc1)C2` (centres unmarked) [compound 116], for which the IC50 is less than 100 nM.

For the molecule `NC1CCCCC1Nc1ccc(C2CC3Cc4n[nH]cc4C(C2)N3S(=O)(=O)c2ccc(C(F)(F)F)cc2)cc1` (centres unmarked) [compound 117], the IC50 is greater than 1000 nM.

As to `O=S(=O)(c1ccc(C(F)(F)F)cc1)N1C2Cc3[nH]ncc3C1c1cnccc12` (centres unmarked) [compound 120], the IC50 was greater than 1000 nM.

In the case of `O=S(=O)(c1ccc(C(F)(F)F)cc1)N1C2c3c[nH]nc3C(F)(F)C1c1c(F)cccc12` (centres unmarked) [compound 121], the IC50 is less than 100 nM.

On to `O=S(=O)(c1ccc(C(F)(F)F)cc1)N1C2c3c[nH]nc3C(F)(F)C1c1cccc(F)c12` (centres unmarked) [compound 123], for which the IC50 is less than 100 nM.

On to `O=S(=O)(c1ccc(C(F)(F)F)cc1)N1C2Cc3[nH]ncc3C1CC(c1ccc(-n3cccn3)cc1)C2` (centres unmarked) [compound 124], for which the IC50 was less than 100 nM.

With `O=S(=O)(c1ccc(C(F)(F)F)cc1)N1C2Cc3n[nH]cc3C1CC(c1cccc(Br)c1)C2` (centres unmarked) [compound 125], the half-inhibitory concentration (IC50) was less than 100 nM.

The experiment is the same for the next values; noted with them: γAPP IC50 (nM), class symbols; assay described in Example A.
`O=S(=O)(c1ccc(C(F)(F)F)cc1)N1C2Cc3n[nH]cc3C1c1c(F)cccc12` (single isomer, unassigned) [compound 114] had an IC50 of 500 to 999 nM.

`O=S(=O)(c1ccc(C(F)(F)F)cc1)N1C2Cc3n[nH]cc3C1c1c(F)cccc12` (single isomer, unassigned) [compound 115] showed an IC50 of less than 100 nM.

Take `O=S(=O)(c1ccc(C(F)(F)F)nc1)N1C2Cc3[nH]ncc3C1c1ncc(F)cc12` (single isomer, unassigned) [compound 259]: the IC50 was greater than 1000 nM.

`O=S(=O)(c1ccc(C(F)(F)F)nc1)N1C2Cc3[nH]ncc3C1c1ncc(F)cc12` (single isomer, unassigned) [compound 260] came in with an IC50 of less than 100 nM.

`O=S(=O)(c1ccc(C(F)(F)F)cc1)N1C2Cc3n[nH]cc3C1c1c(F)cccc12` (centres unmarked) [compound 96]: the IC50 was less than 100 nM.

The term IC50 denotes the concentration at which inhibition is half-maximal.
